Source: patent US7605272B2, “IGF-1R inhibitor” (Kyowa Hakko Kirin Co., Ltd., priority 2005, dated 2009)
Counter-ions that a name gives are not always drawn.

Target: T1, IGF-1R (Homo sapiens, UniProt P08069)
T1 construct: purchased Upstate Co. 14-465
Assay: IGF-1R inhibitory activity (kinase reaction, time-resolved fluoroimmunoassay)
Format: biochemical
Conditions: IGF-1R active recombinant enzyme, test compound 10 μmol/L
Protocol: The IGF-1R inhibitory activity was measured in the following manner.
As IGF-1R, active recombinant enzyme (Catalog No. 14-465) purchased from Upstate Co., was used. To 96 well plate (FIA-PLATE BLACK 96 well FALT-BOTTOM HIGH BINDING, Greiner Bio-one, Catalog No. 655077) coated with NeutroAvidin (Pierce, Catalog No. 31000), biotinylated polyglutamic acid-tyrosine peptide (Nihon Schering K.K., Catalog No. 61GT0BAA) was immobilized and then blocked with 0.25% gelatin to be used as a plate for measuring the kinase reaction. Separately was prepared a solution containing at final concentrations, IGF-1R (200 μg/L), Tris.HCl(pH 7.5)(20 mmol/L), Na3VO4(0.1 mmol/L), MgCl2(1 mmol/L), MnCl2(10 mmol/L), ATP(10 mmol/L), 2-mercaptoethanol (0.04%), BSA(Bovine Serum Albumin) (0.1%), DMSO(0.1%), test compound (10 μmol/L). The solution (each 50 μL) was added to the well of the plate for measuring the kinase reaction and then, enzyme reaction was performed for 30 minutes at 24° C. The plate was washed with TBS-T [10 mmol/L Tris Cl (pH 7.5), 150 mmol/L NaCl, 0.05% Tween 20 (Bio-Rad, Catalog No. 170-6531)] 4 times, then reacted with europium-labeled anti-phosphotyrosine antibody, further washed with TBS-T 4 times and then, measured with time-resolved fluoroimmunoassay (excitation wavelength 340 nm, measuring wavelength 615 nm). The value of a well to which the test compound had not been added was considered as 100% and that of a well where the enzyme and the test compound had not been added was considered as 0%. The relative activity (%) of the well which was added with enzyme and the test compound was measured and by subtracting the calculated value from 100, IGF-1R inhibitory activity of the test compound (%) was determined.

T1 sequence (P08069 959-1367 limits assumed): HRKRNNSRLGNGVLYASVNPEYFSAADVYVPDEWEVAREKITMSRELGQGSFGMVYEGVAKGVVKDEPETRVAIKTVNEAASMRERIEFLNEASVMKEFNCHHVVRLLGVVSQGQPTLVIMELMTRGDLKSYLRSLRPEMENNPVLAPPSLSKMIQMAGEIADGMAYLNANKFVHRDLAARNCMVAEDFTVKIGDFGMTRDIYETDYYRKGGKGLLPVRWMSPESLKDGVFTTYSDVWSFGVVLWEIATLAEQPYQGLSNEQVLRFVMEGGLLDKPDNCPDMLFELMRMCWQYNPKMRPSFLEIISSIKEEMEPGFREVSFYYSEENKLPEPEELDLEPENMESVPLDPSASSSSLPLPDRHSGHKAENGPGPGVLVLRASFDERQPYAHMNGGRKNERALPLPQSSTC

Structure (SMILES) | inhibition at 10 µM | inhibitory activity (%) at 10 μmol/L
O=C(O)c1csc(Nc2ccccc2/C=C/c2n[nH]c3ccccc23)n1 [Compound 170, (E)-2-{2-[2-(1H-indazol-3-yl)vinyl]phenylamino}thiazole-4-carboxylic acid] | 69.8% | –
O=C(c1cnc(Nc2ccccc2/C=C/c2n[nH]c3ccccc23)s1)N1CCC(O)CC1 [Compound 171, (E)-4-hydroxy-1-{2-[2-(2-(1H-indazol-3-yl)vinyl)phenylamino]thiazole-5-ylcarbonyl}piperidine] | 87.2% | –
OCc1csc(Nc2ccccc2/C=C/c2n[nH]c3ccccc23)n1 [Compound 173, (E)-2-{2-[2-(1H-indazol-3-yl)vinyl]phenylamino}thiazole-4-methanol] | 97.8% | –
CN(C)C(=O)c1nc(-c2ccccc2/C=C/c2n[nH]c3ccccc23)no1 [Compound 176, (E)-N,N-dimethyl-3-{2-[2-(1H-indazol-3-yl)vinyl]phenyl}[1,2,4]oxadiazole-5-carboxamide] | 100% | –
CNC(=O)c1nc(-c2ccccc2/C=C/c2n[nH]c3ccccc23)no1 [Compound 177, (E)-3-{2-[2-(1H-indazol-3-yl)vinyl]phenyl}-N-methyl[1,2,4]oxadiazole-5-carboxamide] | 99.4% | –
O=c1[nH]c(-c2ccccc2/C=C/c2n[nH]c3ccccc23)no1 [Compound 178, (E)-3-{2-[2-(1H-indazol-3-yl)vinyl]phenyl}-4H-[1,2,4]oxadiazole-5-one] | 71.1% | –
OCc1nc(-c2ccccc2/C=C/c2n[nH]c3ccccc23)no1 [Compound 179, (E)-3-{2-[2-(1H-indazol-3-yl)vinyl]phenyl}[1,2,4]oxadiazol-5-ylmethanol] | 99.6% | –
OCCCc1nc(-c2ccccc2/C=C/c2n[nH]c3ccccc23)no1 [Compound 180, (E)-3-(3-{2-[2-(1H-indazol-3-yl)vinyl]phenyl}[1,2,4]oxadiazol-5-yl)propan-1-ol] | 98.1% | –
OCCc1nc(-c2ccccc2/C=C/c2n[nH]c3ccccc23)no1 [Compound 181, (E)-2-{3-{2-[2-(1H-indazol-3-yl)vinyl]phenyl}[1,2,4]oxadiazol-5-yl}ethanol] | 98.9% | –
C(=C\c1n[nH]c2ccccc12)/c1ccccc1-n1ccc(CN2CCOCC2)c1 [Compound 182, (E)-3-{2-[2-(3-morpholin-4-ylmethylpyrrol-1-yl)phenyl]vinyl}-1H-indazole] | 97.9% | –
C(=C\c1n[nH]c2ccccc12)/c1ccccc1-c1nc2ccccc2o1 [Compound 183, (E)-2-{2-[2-(1H-indazol-3-yl)vinyl]phenyl}benzoxazole] | 59.1% | –
Nc1ccc2oc(-c3ccccc3/C=C/c3n[nH]c4ccccc34)nc2c1 [Compound 185, (E)-2-{2-[2-(1H-indazol-3-yl)vinyl]phenyl}benzoxazol-5-ylamine] | 93.2% | –
CN(C)CCNCc1ccn(-c2ccccc2/C=C/c2n[nH]c3ccccc23)c1 [Compound 186, (E)-N′-(1-{2-[2-(1H-indazol-3-yl)vinyl]phenyl}-1H-pyrrol-3-ylmethyl)-N,N-dimethylethane-1,2-diamine] | 102% | –
OCCNCc1ccn(-c2ccccc2/C=C/c2n[nH]c3ccccc23)c1 [Compound 187, (E)-2-(1-{2-[2-(1H-indazol-3-yl)vinyl]phenyl}-1H-pyrrol-3-ylmethylamino)ethanol] | 98.2% | –
CN(C)CCN(C)Cc1ccn(-c2ccccc2/C=C/c2n[nH]c3ccccc23)c1 [Compound 188, (E)-N-(1-{2-[2-(1H-indazol-3-yl)vinyl]phenyl}-1H-pyrrol-3-ylmethyl)-N,N′,N′-trimethylethane-1,2-diamine] | 99.4% | –
C(=C\c1n[nH]c2ccccc12)/c1ccccc1-n1ccc(CNCC2CC2)c1 [Compound 189, (E)-3-cyclopropylmethylaminomethyl-1-{2-[2-(1H-indazol-3-yl)vinyl]phenyl}pyrrole] | 102% | –
Cc1ccc(C)n1-c1ccccc1/C=C/c1n[nH]c2ccccc12 [Compound 190] | – | 96.9%
Cc1cc(CO)c(C)n1-c1ccccc1/C=C/c1n[nH]c2ccccc12 [Compound 191, (E)-1-{2-[2-(1H-indazol-3-yl)vinyl]phenyl}-2,5-dimethyl-1H-pyrrol-3-ylmethanol] | 102% | –
O=C1C2=C(CCCC2)C(=O)N1c1ccccc1/C=C/c1n[nH]c2ccccc12 [Compound 203, (E)-2-{2-[2-(1H-indazol-3-yl)vinyl]phenyl}-4,5,6,7-tetrahydroisoindole-1,3-dione] | 101% | –
O=C1CCCCN1c1ccccc1/C=C/c1n[nH]c2ccccc12 [Compound 206, (E)-1-{2-[2-(1H-indazol-3-yl)vinyl]phenyl}piperidin-2-one] | 101% | –
O=C1CCCN1c1ccccc1/C=C/c1n[nH]c2ccccc12 [Compound 208, (E)-1-{2-[2-(1H-indazol-3-yl)vinyl]phenyl}pyrrolidin-2-one] | 96.1% | –
O=C1CCC(=O)N1c1ccccc1/C=C/c1n[nH]c2ccccc12 [Compound 211, (E)-1-{2-[2-(1H-indazol-3-yl)vinyl]phenyl}pyrrolidine-2,5-dione] | 86.7% | –
O=C1CNC(=O)N1c1ccccc1/C=C/c1n[nH]c2ccccc12 [Compound 212, (E)-3-{2-[2-(1H-indazol-3-yl)vinyl]phenyl}imidazolidine-2,4-dione] | 83.6% | –
CS(=O)(=O)c1ccc(C(=O)Nc2ccccc2/C=C/c2n[nH]c3ccccc23)cc1 [Compound 215, (E)-N-{2-[2-(1H-indazol-3-yl)vinyl]phenyl}-4-methanesulfonylbenzamide] | 81.2% | –

Results, then the molecule that gave them:

inhibition at 10 µM | inhibitory activity (%) at 10 μmol/L | Structure (SMILES)
92.3% | – | O=C1c2ccc([N+](=O)[O-])cc2C(=O)N1c1ccccc1/C=C/c1n[nH]c2ccccc12 [Compound 192, (E)-2-{2-[2-(1H-indazol-3-yl)vinyl]phenyl}-5-nitroisoindole-1,3-dione]
99.8% | – | O=C1c2ccc(Cl)cc2C(=O)N1c1ccccc1/C=C/c1n[nH]c2ccccc12 [Compound 196, (E)-5-chloro-2-{2-[2-(1H-indazol-3-yl)vinyl]phenyl}isoindole-1,3-dione]
101% | – | Cc1ccc2c(c1)C(=O)N(c1ccccc1/C=C/c1n[nH]c3ccccc13)C2=O [Compound 197, (E)-2-{2-[2-(1H-indazol-3-yl)vinyl]phenyl}-5-methylisoindole-1,3-dione]
87.2% | – | O=C1c2ccncc2C(=O)N1c1ccccc1/C=C/c1n[nH]c2ccccc12 [Compound 198, (E)-2-{2-[2-(1H-indazol-3-yl)vinyl]phenyl}pyrrolo[3,4-c]pyridine-1,3-dione hydrochloride]
99.4% | – | O=C1c2cccc(F)c2C(=O)N1c1ccccc1/C=C/c1n[nH]c2ccccc12 [Compound 199, (E)-4-fluoro-2-{2-[2-(1H-indazol-3-yl)vinyl]phenyl}isoindole-1,3-dione]
67.5% | – | O=C1c2cccc(O)c2C(=O)N1c1ccccc1/C=C/c1n[nH]c2ccccc12 [Compound 200, (E)-4-hydroxy-2-{2-[2-(1H-indazol-3-yl)vinyl]phenyl}isoindole-1,3-dione]
99.1% | – | CCNc1ccc2c(c1)C(=O)N(c1ccccc1/C=C/c1n[nH]c3ccccc13)C2=O [Compound 201, (E)-5-ethylamino-2-{2-[2-(1H-indazol-3-yl)vinyl]phenyl}isoindole-1,3-dione]
85.9% | – | O=C1c2cc3ccccc3cc2C(=O)N1c1ccccc1/C=C/c1n[nH]c2ccccc12 [Compound 202, (E)-2-{2-[2-(1H-indazol-3-yl)vinyl]phenyl}benzo[f]isoindole-1,3-dione]
99.8% | – | CC1=C(C)C(=O)N(c2ccccc2/C=C/c2n[nH]c3ccccc23)C1=O [Compound 204, (E)-1-{2-[2-(1H-indazol-3-yl)vinyl]phenyl}-3,4-dimethylpyrrole-2,5-dione]
89.8% | – | O=C1c2cccnc2C(=O)N1c1ccccc1/C=C/c1n[nH]c2ccccc12 [Compound 205, (E)-6-{2-[2-(1H-indazol-3-yl)vinyl]phenyl}pyrrolo[3,4-b]pyridine-5,7-dione]
98.1% | – | O=C1C(Cl)=C(Cl)C(=O)N1c1ccccc1/C=C/c1n[nH]c2ccccc12 [Compound 207, (E)-3,4-dichloro-1-{2-[2-(1H-indazol-3-yl)vinyl]phenyl}pyrrole-2,5-dione]
99.5% | – | O=C1c2ccsc2C(=O)N1c1ccccc1/C=C/c1n[nH]c2ccccc12 [Compound 209, (E)-5-{2-[2-(1H-indazol-3-yl)vinyl]phenyl}thieno[2,3-c]pyrrole-4,6-dione]
96.5% | – | O=C1C2=C(CCC2)C(=O)N1c1ccccc1/C=C/c1n[nH]c2ccccc12 [Compound 210, (E)-2-{2-[2-(1H-indazol-3-yl)vinyl]phenyl}-5,6-dihydro-4H-cyclopenta[c]pyrrole-1,3-dione]
